For this experiment, the target named is T1, RORγ (Homo sapiens, UniProt P51449).
T1 construct: Jurkat pEx/Gal/hRORγ CLBD/HYG pG5luc/blast; expressed in transfected cells
T1 sequence (P51449 269-508 limits assumed): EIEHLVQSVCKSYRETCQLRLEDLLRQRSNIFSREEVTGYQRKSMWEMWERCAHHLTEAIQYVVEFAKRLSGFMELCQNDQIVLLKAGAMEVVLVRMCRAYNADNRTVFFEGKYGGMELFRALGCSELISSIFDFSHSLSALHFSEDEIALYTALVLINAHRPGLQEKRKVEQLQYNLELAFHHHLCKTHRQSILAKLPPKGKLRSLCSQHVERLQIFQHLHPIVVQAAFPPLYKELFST
As to the kind of experiment: RORγ Gal4 reporter assay (Gal4-luciferase reporter in Jurkat cells). Particulars: inhibition of luminescence (inverse agonist activity); Jurkat cells stably over-expressing hRORγ; incubated overnight. In kind it is cell-based. Here is the method: General RORγ Gal4 Reporter Assay
Inverse agonist activity of potential ligands to RORγ was measured by inhibition of luminescence in a Gal4-luciferase reporter assay in Jurkat cells.
Jurkat cells stably over-expressing the RORγ receptor, Jurkat pEx/Gal/hRORγ CLBD/HYG pG5luc/blast, were plated at a concentration of 10,000 cells/well in a 384-well solid white cell culture plate (Perkin Elmer #6007899) in assay buffer RPMI 1640 (Gibco 11875-085 1L) containing 0.1% BSA, 100×HEPES (Gibco 15360-080), 100 mM sodium pyruvate (Gibco 11360-040), […] Hygromycin B (Invitrogen 10687-010) and 10 mg/mL blasticidin (Invitrogen R210-01). 100 nL of test compound in a 3-fold serial dilution, with final concentrations ranging from 40 μM to 0.67 nM, were added to the cells which were then incubated overnight.
The following day, cells were lysed with 10 μL of Steady-Glo Luciferase Assay System (Promega Cat. No. EZ550), and analyzed immediately. IC50 values were determined. The IC50 value is defined as the concentration of test compound needed to reduce luciferase activity by 50% and is calculated using the four parameter logistic equation to fit the normalized data.
In general terms: A reporter such as luciferase makes a cellular process visible.
For orientation: IC50 means the concentration that inhibits the measured activity by half. Low readings indicate greater potency in that assay, high ones weaker potency in that assay. The molecule `CC(=O)N=S1(=O)CCC(C(=O)N2CC[C@@]3(S(=O)(=O)c4ccc(F)cc4)c4ccc(C(F)(C(F)(F)F)C(F)(F)F)cc4CC[C@@H]23)CC1` (single isomer, unassigned) [Example 15] returned an IC50 of 49 nM.
Molecule `N=S1(=O)CCC(C(=O)N2CCC3(S(=O)(=O)c4ccc(Cl)cc4)c4ccc(C(F)(C(F)(F)F)C(F)(F)F)cc4CCC23)CC1` (single isomer, unassigned) [Example 5] yielded an IC50 of 58 nM.
`N=S1(=O)CCC(C(=O)N2CCC3(S(=O)(=O)c4cccc(Cl)c4)c4ccc(C(F)(C(F)(F)F)C(F)(F)F)cc4CCC23)CC1` (single isomer, unassigned) [Example 2]: the IC50 is 57 nM.
`CN=S1(=O)CCC(C(=O)N2CC[C@@]3(S(=O)(=O)c4ccc(F)cc4)c4ccc(C(F)(C(F)(F)F)C(F)(F)F)cc4CC[C@@H]23)CC1` (single isomer, unassigned) [Example 14] returned an IC50 of 40 nM.
To `N=S1(=O)CCC(C(=O)N2CCC3(S(=O)(=O)c4cccc(F)c4)c4ccc(C(F)(C(F)(F)F)C(F)(F)F)cc4CCC23)CC1` (single isomer, unassigned) [Example 1, (9b-((3-fluorophenyl)sulfonyl)-7-(perfluoropropan-2-yl)-1,2,3a,4,5,9b-hexahydro-3H-benzo[e]indol-3-yl)(1-imino-1-oxidohexahydro-1λ^6-thiopyran-4-yl)methanone] belongs 40 nM; to `N=S1(=O)CCC(C(=O)N2CCC3(S(=O)(=O)c4ccc(F)cc4)c4ccc(C(F)(C(F)(F)F)C(F)(F)F)cc4OCC23)CC1` (single isomer, unassigned) [Example 4], 246 nM.
On to `N=S1(=O)CCC(C(=O)N2CC[C@@]3(S(=O)(=O)c4ccc(F)cc4)c4ccc(C(F)(C(F)(F)F)C(F)(F)F)cc4CC[C@@H]23)CC1` (single isomer, unassigned) [Example 12], for which the IC50 came out at 56 nM.
For the molecule `CN=S1(=O)CCC(C(=O)N2CC[C@@]3(S(=O)(=O)c4ccc(F)cc4)c4ccc(C(F)(C(F)(F)F)C(F)(F)F)cc4CC[C@@H]23)CC1` (single isomer, unassigned) [Example 13], the IC50 came out at 26 nM.
With `N=S1(=O)CCC(C(=O)N2CC[C@@]3(S(=O)(=O)c4ccc(F)cc4)c4ccc(C(F)(C(F)(F)F)C(F)(F)F)cc4CC[C@@H]23)CC1` (mixture of isomers) [Example 7, ((3aR,9bR)-9b-((4-fluorophenyl)sulfonyl)-7-(perfluoropropan-2-yl)-1,2,3a,4,5,9b-hexahydro-3H-benzo[e]indol-3-yl)(1-imino-1-oxidohexahydro-1λ^6-thiopyran-4-yl)methanone], the IC50 was found to be 28 nM.
`CN1CC2N(C(=O)C3CCS(=N)(=O)CC3)CCC2(S(=O)(=O)c2ccc(F)cc2)c2ccc(C(F)(C(F)(F)F)C(F)(F)F)cc21` (stereo not shown) [Example 17]: the IC50 came out at 21 nM.
`N=S1(=O)CCC(F)(C(=O)N2CC[C@@]3(S(=O)(=O)c4ccc(F)cc4)c4ccc(C(F)(C(F)(F)F)C(F)(F)F)cc4CC[C@@H]23)CC1` (single isomer, unassigned) [Example 18]: the IC50 was 52 nM.
Turning to `N#CC1(C(=O)N2CC[C@@]3(S(=O)(=O)c4ccc(F)cc4)c4ccc(C(F)(C(F)(F)F)C(F)(F)F)cc4CC[C@@H]23)CCS(=N)(=O)CC1` (stereo partly shown) [Example 10], the IC50 came to 48 nM.
For `N=S1(=O)CCC(F)(C(=O)N2CC[C@@]3(S(=O)(=O)c4ccc(F)cc4)c4ccc(C(F)(C(F)(F)F)C(F)(F)F)cc4CC[C@@H]23)CC1` (single isomer, unassigned) [Example 19], the IC50 amounted to 60 nM.
Turning to `N=S1(=O)CCC(C(=O)N2CC[C@@]3(S(=O)(=O)c4ccc(F)cc4)c4ccc(C(F)(C(F)(F)F)C(F)(F)F)cc4CC[C@@H]23)CC1` (single isomer, unassigned) [Example 11], the IC50 amounted to 39 nM.
For the molecule `CC(=O)N=S1(=O)CCC(C(=O)N2CC[C@@]3(S(=O)(=O)c4ccc(F)cc4)c4ccc(C(F)(C(F)(F)F)C(F)(F)F)cc4CC[C@@H]23)CC1` (single isomer, unassigned) [Example 16], the IC50 was 77 nM.
`N=S1(=O)CCC(O)(C(=O)N2CC[C@@]3(S(=O)(=O)c4ccc(F)cc4)c4ccc(C(F)(C(F)(F)F)C(F)(F)F)cc4CC[C@@H]23)CC1` (mixture of isomers) [Example 9, ((3aR)-9b-((4-fluorophenyl)sulfonyl)-7-(perfluoropropan-2-yl)-4,5-dihydro-1H-benzo[e]indol-3(2H,3aH,9bH)-yl)(4-hydroxy-1-imino-1-oxidotetrahydro-2H-thiopyran-4-yl)methanone] showed an IC50 of 14 nM.
`N=S1(=O)CCC(C(=O)N2CCC3(S(=O)(=O)c4ccc(F)cc4)c4ccc(C(F)(C(F)(F)F)C(F)(F)F)cc4NCC23)CC1` (single isomer, unassigned) [Example 6, (9b-((4-fluorophenyl)sulfonyl)-7-(perfluoropropan-2-yl)-1,2,3a,4,5,9b-hexahydro-3H-pyrrolo[2,3-c]quinolin-3-yl)(1-imino-1-oxidohexahydro-1λ^6-thiopyran-4-yl)methanone] yielded an IC50 of 51 nM.
To `CC1(C(=O)N2CC[C@@]3(S(=O)(=O)c4ccc(F)cc4)c4ccc(C(F)(C(F)(F)F)C(F)(F)F)cc4CC[C@@H]23)CCS(=N)(=O)CC1` (stereo partly shown) [Example 8] belongs 34 nM; to `N=S1(=O)CCC(C(=O)N2CCC3(S(=O)(=O)c4ccccc4)c4ccc(C(F)(C(F)(F)F)C(F)(F)F)cc4CCC23)CC1` (single isomer, unassigned) [Example 3], 56 nM.

The values above are taken from patent US10968177B2, “Tricyclic sulfones as RORγ modulators” (BRISTOL-MYERS SQUIBB COMPANY, priority 2016, dated 2021).
